Measured values from patent US20220257531A1, “COMPOSITIONS AND METHODS FOR TREATMENT OF A FIBROTIC DISEASE” (Avexxin AS, priority 2017, published 2022).

Tested on: BLM-induced pulmonary fibrosis in C57BL/6J mice
Assay: Bleomycin (BLM)-induced pulmonary fibrosis model, Example 4
Type: in vivo
Source text: The bleomycin model of idiopathic fibrosis (IPF) is a well-characterized and currently an extensively used animal model of Interstitial lung disease (ILD) due to its: i) ability to reproduce many aspects of the disease, ii) good reproducibility, and iii) ease of induction. Overall, studies using the bleomycin model have identified many of the cellular and molecular mechanisms now recognized as being important in pathogenesis of IPF, as well as novel therapies for ILDs. The model is based on intratracheal administration of bleomycin in mice that results in alveolar epithelial damage, alveolar inflammation and fibrosis within a period of 21 days. Consequently, the model allows therapeutic testing of novel agents within a reasonably short period of time (Liu T eta al, Methods Mol Biol. 2017;1627:27-42).
Test Article & Formulations Compound B (Synthetica A/S, Norway) was formulated for subcutaneous administration in a nano-emulsion containing 2 mg/ml Compound B, 2 mg/ml MCT oil (Lipoid), 2 mg/ml Polysorbate 80 (Fluka) and sodium citrate buffer 10 mM (pH 7). The final solution was sterilized by filtration and saturated with Argon 5.0 AGA prior to aliquoting in 10 ml tubes stored at −20° C. till further use. A separate Polysorbate 80- and sodium citrate buffer-based vehicle solution without Compound B and MCT oil was also prepared, sterilized, aliquoted and stored, serving as the subcutaneous vehicle control used in the UUO animal study. Nintedanib (approved and commercialized for IPF under the brand names Ofev/Vargatef) was used as a positive control. The compound was purchased from Chemexpress Co., Ltd. (China) and suspended in 1% methylcellulose.
Six-week-old female C57BL/6J mice were obtained from Japan SLC, Inc. (Japan). Animals were kept in an animal room facility at a temperature of 23±2° C., humidity of 45±10%, under a 12-hour light and dark cycle (light from 8:00 to 20:00). A high pressure of 20±4 Pa was kept in the experimental room to prevent contamination. The animals were housed in TPX cages (CLEA Japan; maximum of 6 mice per cage) and fed with a sterilized normal diet (CE-2; CLEA Japan, Japan) provided ad libitum, being placed in a metal lid on the top of the cage. Sterilized Paper-Clean (Japan SLC) was used for bedding and was replaced once a week. Pure water was provided ad libitum from a water bottle equipped with a rubber stopper and a sipper tube. […]
The viability, clinical signs and behavior were monitored every day. Body weight was recorded daily after the day of starting the BLM administration (Day 0). […]
To quantify lung hydroxyproline content, frozen whole left lung samples were processed by an acid hydrolysis method as follows. […]

COC(=O)c1ccc2c(c1)NC(=O)/C2=C(\Nc1ccc(N(C)C(=O)CN2CCN(C)CC2)cc1)c1ccccc1 [Nintedanib]
Body weight changes at sacrifice (100 mg/kg per os daily Day 7-20, Day 21, % of baseline Day 0, mean ± SD): 103 ± 5% | Lung Hydroxyproline (100 mg/kg per os daily Day 7-20, Day 21, mean ± SD): 50.6 ± 14.5 μg/ml left lung | Ashcroft score (Masson's Trichrome, 100 mg/kg per os daily Day 7-20, mean ± SD): 1.6 ± 1.0 | mice found dead before reaching Day 21 (per treatment group of 12, treatment Day 7-20): three out of 12
